{
  "source": "patent US6617337B1",
  "about": "“Use of nitroxides for the treatment of essential hypertension” (Georgetown University, priority 1997, dated 2003)",
  "type_in_all_cases": "in vivo, rat",
  "key": {"SHR and WKY rats [1]": {"system": "SHR and WKY rats", "test": "MAP after 7 days of intraperitoneal Tempol", "settings": "Tempol 250 mg/kg/day intraperitoneally for 7 days"}, "SHR and WKY rats [2]": {"system": "SHR and WKY rats", "test": "MAP during constant intravenous infusion of Tempol in anesthetized rats (dose-response)", "settings": "Tempol 1,800 μmol·kg^−1·h^−1 i.v. infusion, 30 minutes"}, "SHR and WKY rats [3]": {"system": "SHR and WKY rats", "test": "Maximal TGF responses during retrograde microperfusion of Tempol into the macula densa/JGA (Series 6)", "settings": "for Percentage reduction in TGF normalized to the initial response: Tempol 10^−3 M retrograde; for PSF difference 0-40 nl·min^−1 (maximal TGF response) / PSF during LH perfusion at 0 nl·min^−1 / PSF during LH perfusion at 40 nl·min^−1: retrograde perfusion, ATF+Tempol 10^−3 M, mean ± SEM", "procedure": "Series 4. Effects of inhibition of bNOS on maximal TGF responses in SHR and WKY. These experiments further examined the SHR hypertension model and whether the enhanced TGF of the SHR kidney is due to a blunted generation of NO by bNOS in the macula densa or whether NOS inhibition is diminished in the SHR model. Groups of SHR and age-matched WKY rats were prepared for in vivo micropuncture, microperfusion, and TGF studies as described in detail previously. In brief, animals were anesthetized with thiobarbital (Inactin, 100 mg·kg^−1; Research Biochemicals, Inc., Natick, Mass.). A catheter was placed in a jugular vein for fluid infusion and in a femoral artery for recording of mean arterial pressure (MAP) from the electrically damped output of a pressure transducer (Statham, Inc.). A tracheotomy tube was inserted and the animals were allowed to breathe spontaneously. The left kidney was exposed by a flank incision, cleaned of connective tissue, and stabilized in a Lucite cup. This kidney was bathed in 0.154 M NaCl maintained at 37° C. After completion of surgery, rats were infused with a solution of 0.154 M NaCl and 1% albumin at 1.5 ml·h^−1 to maintain a euvolemic state. Micropuncture studies were begun after 60 min for stabilization.\nFor orthograde microperfusion of the loop of Henle (LH), a micropipette (8 μm OD) containing artificial tubular fluid (ATF) stained with FD&C dye was inserted into a late proximal tubule. Injections of the colored ATF identified the nephron and the direction of flow. An immobile bone wax block was inserted into this micropuncture site via a micropipette (10-15 μm) and connected to a hydraulic drive (Trent Wells, Inc., LaJolla, Calif.) to halt tubular fluid flow. A perfusion micropipette (6-8 μm) containing ATF and test compounds or vehicle was inserted into the proximal tubule downstream from the wax block and connected to a nanoliter perfusion pump (WPI, Sarasota, Fla.). A pressure micropipette (1-2 μm) was inserted into the proximal tubule upstream from the wax block to measure proximal stop flow pressure (PSF). Changes in PSF are an index of changes in glomerular capillary hydraulic pressure (PGC). Measurements of PSF were made in each nephron during zero loop perfusion and during perfusion with ATF at 40 nl·min^−1, which produces a maximal TGF response, defined as the difference between PSF values recorded during perfusion of the loop with ATF at 0 and 40 nl·min^−1.\nGroups of SHR (n=5) and WKY rats (n=5) were prepared for studies of retrograde microperfusion into the macula densa. […] Therefore, these studies of TGF were conducted with retrograde microperfusion from the early distal (ED) tubule into the macula densa. After identifying the nephron with FD&C green, the last proximal convolution was vented and a wax block placed upstream. A micropipette (8-10 μm OD) was inserted into the ED tubule upstream from an oil droplet. The loop of Henle was perfused retrogradely with perfusate entering the macula densa segment directly at 0 and 20 nl·min^−1. This represents a maximal activation for TGF by retrograde perfusion. […] Therefore, this dose was used thereafter in the test animals (Dosage/kg would usually be lower in larger animals). Comparisons were made of maximum TGF responses obtained during perfusion of ATF+vehicle (ethanol) and ATF+Tempol."}, "SHR and WKY rats [4]": {"system": "SHR and WKY rats", "test": "MAP and renal hemodynamics during bolus intravenous injection of Tempol in anesthetized rats", "settings": "for Decrease in MAP: Tempol 72 μmol/kg IV; for RBF during Tempol: dose not specified (24 and 72 μmol/kg studied)", "procedure": "In the first group, the short-term actions of Tempol were determined in anesthetized rats. […] The following data was obtained:\nMaterials and Methods. In Examples 3 to 6, groups of male SHR and WKY rats (200 to 300 g) were maintained on tap water and standard chow (Harlan-Teklad Inc.). […] In order to do this experiment, WKY (n=6) and SHR (n=6) were anesthetized with thiobutabarbital (100 mg/kg i.p., Inactin, Research Biochemicals International) and maintained at 37° C. on a servocontrolled heated rodent operating table. A tracheostomy was performed with polyethylene PE-240 tubing, and the left jugular vein and carotid artery were cannulated with PE-50 tubing. Intravenous infusion of 1% albumin dissolved in 0.154 M NaCl solution was infused at 2 mL/h i.v. to maintain an euvolemic state. A midline incision was made, and the left renal artery was isolated. A blood-flow probe was placed around the renal artery and connected to a transit-time blood flowmeter (1RB, Transonic Systems Inc.). We have previously shown that this method of measuring real-time changes in RBF is valid in the rat (Welch et al., 1995 Am. J. Physiol. 37: F175-F178).\nMAP was continuously recorded from the carotid artery using a Statham pressure transducer (model P23, Gould Instruments) and MACLab data acquisition program. After 60 minutes of equilibration, there was a basal period for measurement of MAP and RBF over 30 minutes."}, "[5]": {"settings": "SHR, Tempol 4 mg/kg intravenously"}, "[6]": {"settings": "WKY, Tempol 4 mg/kg intravenously"}},
  "data": [
    {"smiles": "CC1(C)CC(O)CC(C)(C)N1[O]", "note": "[Tempol, 4-hydroxy-2,2,6,6-tetramethyl-1-piperidinyloxy]", "values": [
      {"measurement": "MAP after treatment", "setting": "SHR and WKY rats [1]; SHR, from 133±2, p<0.01", "value": "120±3", "unit": "mm Hg"},
      {"measurement": "Effect on MAP", "setting": "SHR and WKY rats [1]; WKY", "value": "no effect"},
      {"measurement": "MAP", "setting": "SHR and WKY rats [2]; SHR", "value": "72±10", "unit": "mm Hg"},
      {"measurement": "MAP", "setting": "SHR and WKY rats [2]; WKY", "value": "71±3", "unit": "mm Hg"},
      {"measurement": "Percentage reduction in TGF normalized to the initial response", "setting": "SHR and WKY rats [3]; SHR", "value": "−26±2", "unit": "%"},
      {"measurement": "PSF difference 0-40 nl·min^−1 (maximal TGF response)", "setting": "SHR and WKY rats [3]; SHR", "value": "8.5 ± 0.8", "unit": "mm Hg"},
      {"measurement": "PSF during LH perfusion at 0 nl·min^−1", "setting": "SHR and WKY rats [3]; SHR", "value": "40.8 ± 0.8", "unit": "mm Hg"},
      {"measurement": "PSF during LH perfusion at 40 nl·min^−1", "setting": "SHR and WKY rats [3]; SHR", "value": "32.1 ± 0.9", "unit": "mm Hg"},
      {"measurement": "Percentage reduction in TGF normalized to the initial response", "setting": "SHR and WKY rats [3]; WKY", "value": "−17±3", "unit": "%"},
      {"measurement": "PSF difference 0-40 nl·min^−1 (maximal TGF response)", "setting": "SHR and WKY rats [3]; WKY", "value": "6.7 ± 0.4", "unit": "mm Hg"},
      {"measurement": "PSF during LH perfusion at 0 nl·min^−1", "setting": "SHR and WKY rats [3]; WKY", "value": "34.7 ± 0.8", "unit": "mm Hg"},
      {"measurement": "PSF during LH perfusion at 40 nl·min^−1", "setting": "SHR and WKY rats [3]; WKY", "value": "28.0 ± 0.9", "unit": "mm Hg"},
      {"measurement": "Maximally effective dose (preliminary studies, effects reversible)", "setting": "SHR and WKY rats [3]; retrograde microperfusion into the macula densa", "value": "10^−3 M"},
      {"measurement": "MAP", "setting": "SHR and WKY rats [4]; SHR, Tempol 24 μmol/kg IV bolus", "value": "147±4", "unit": "mm Hg"},
      {"measurement": "RVR", "setting": "SHR and WKY rats [4]; SHR, Tempol 72 μmol/kg", "value": "17±2", "unit": "mm Hg·mL^−1·min^−1"},
      {"measurement": "MAP", "setting": "SHR and WKY rats [4]; SHR, Tempol 72 μmol/kg IV bolus", "value": "104±9", "unit": "mm Hg"},
      {"measurement": "Decrease in MAP", "setting": "SHR and WKY rats [4]; SHR, P<0.05", "value": 28, "unit": "%"},
      {"measurement": "Decrease in RVR", "setting": "SHR and WKY rats [4]; SHR, Tempol 72 μmol/kg, P<0.05", "value": 29, "unit": "%"},
      {"measurement": "MAP", "setting": "SHR and WKY rats [4]; [5]", "value": "108±8", "unit": "mm Hg"},
      {"measurement": "RVR", "setting": "SHR and WKY rats [4]; [5]", "value": "17±2", "unit": "mm Hg/ml/min"},
      {"measurement": "MAP", "setting": "SHR and WKY rats [4]; SHR, Tempol 12 mg/kg intravenously", "value": "80±5", "unit": "mm Hg"},
      {"measurement": "RBF during Tempol", "setting": "SHR and WKY rats [4]; SHR", "value": "6.7 ± 0.8", "unit": "mL/min"},
      {"measurement": "RVR", "setting": "SHR and WKY rats [4]; SHR, low-dose Tempol (24 μmol/kg)", "value": "24±3", "unit": "mm Hg·mL^−1·min^−1"},
      {"measurement": "MAP", "setting": "SHR and WKY rats [4]; WKY, Tempol 24 μmol/kg IV bolus", "value": "114±5", "unit": "mm Hg"},
      {"measurement": "RVR", "setting": "SHR and WKY rats [4]; WKY, Tempol 72 μmol/kg", "value": "15±1", "unit": "mm Hg·mL^−1·min^−1"},
      {"measurement": "MAP", "setting": "SHR and WKY rats [4]; WKY, Tempol 72 μmol/kg IV bolus", "value": "96±6", "unit": "mm Hg"},
      {"measurement": "Decrease in MAP", "setting": "SHR and WKY rats [4]; WKY, P<0.05", "value": 11, "unit": "%"},
      {"measurement": "MAP", "setting": "SHR and WKY rats [4]; [6]", "value": "98±6", "unit": "mm Hg"},
      {"measurement": "RVR", "setting": "SHR and WKY rats [4]; [6]", "value": "15±1", "unit": "mm Hg/ml/min"},
      {"measurement": "MAP", "setting": "SHR and WKY rats [4]; WKY, Tempol 12 mg/kg intravenously", "value": "99±7", "unit": "mm Hg"},
      {"measurement": "RBF during Tempol", "setting": "SHR and WKY rats [4]; WKY", "value": "6.6 ± 0.7", "unit": "mL/min"},
      {"measurement": "RVR", "setting": "SHR and WKY rats [4]; WKY, low-dose Tempol (24 μmol/kg)", "value": "17±1", "unit": "mm Hg·mL^−1·min^−1"}
    ]}
  ]
}
